Measurements as given in patent US20240041042A1, “1-(PYRIDYL)-5-AZINYLPYRAZOLE DERIVATIVES, AND THEIR USE FOR CONTROL OF UNDESIRED PLANT GROWTH” (Bayer Aktiengesellschaft, priority 2020, published 2024).
Like-named read-outs stand apart in the source and are kept apart here.

Key:
Type in all cases: in vivo
Glycine max (GLXMA) = conditions: pre-emergence, crop plant compatibility, in comparison to untreated controls
Procedure, shortened: (§1)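 Scoring: visual, % of untreated control, about 3 weeks after a pre-emergence application to the soil surface. Application used WP or EC formulations diluted in water with 0.5% additive at 600 l/ha; dosage levels are marked by suffixes a, b and c.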

Oryza sativa (ORYSA) [1] = conditions: pre-emergence, crop plant compatibility, in comparison to untreated controls
Procedure, shortened: as §1

[2] = test system: Triticum aestivum (TRZAS); conditions: pre-emergence, crop plant compatibility, in comparison to untreated controls
Procedure, shortened: as §1

Zea mays (ZEAMX) [3] = conditions: pre-emergence, crop plant compatibility, in comparison to untreated controls
Procedure, shortened: as §1

[4] = test system: Amaranthus retroflexus (AMARE); test: Post-emergence herbicidal action against AMARE
Procedure, shortened: (§2)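 Post-emergence greenhouse spray, one-leaf stage, 600 l/ha water plus 0.5% additive; WP or EC formulations; application rates 320 g/ha or lower. Visual % damage vs untreated controls at ~3 weeks.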

Oryza sativa (ORYSA) [5] = conditions: crop plant compatibility
Procedure, shortened: (§3)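 Effects were read visually as % versus untreated controls (0% = no effect, 100% = death) about 3 weeks post-treatment. Application was a post-emergence spray at the one-leaf stage of WP/EC formulations with 0.5% additive at 600 l/ha. Different dosages are denoted a, b and c.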

[6] = test system: Triticum aestivum (TRZAS); conditions: crop plant compatibility, effect vs untreated controls
Procedure, shortened: as §3

Zea mays (ZEAMX) [7] = conditions: for Post-emergence action against ZEAMX in % (crop plant compatibility): 20 g/ha, effect in comparison to untreated controls; for Post-emergence action against ZEAMX in %: crop plant compatibility, 80 g/ha, effect vs untreated controls
Procedure, shortened: as §3

[8] = test system: Amaranthus retroflexus (AMARE); test: Pre-emergence herbicidal action against AMARE; conditions: visual scoring after about 3 weeks vs untreated controls
Procedure, shortened: (§4)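 Pre-emergence soil-surface spray of compound, formulated as wettable powder or emulsion concentrate, in aqueous suspension or emulsion with 0.5% additive (600 l/ha; rate 320 g/ha or less). Activity rated visually after roughly 3 weeks in the greenhouse as a percentage of untreated controls, 0% meaning no difference.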

[9] = test system: Pharbitis purpurea (PHBPU); test: Post-emergence herbicidal action against PHBPU
Procedure, shortened: as §2

[10] = test system: Alopecurus myosuroides (ALOMY); test: Pre-emergence herbicidal action against ALOMY; conditions: 320 g/ha; scored visually after about 3 weeks; 100% = plants have died
Procedure, shortened: as §4

Setaria viridis (SETVI) [11] = test: Pre-emergence herbicidal action against SETVI
Procedure, shortened: as §4

Viola tricolor (VIOTR) [12] = test: Pre-emergence herbicidal action against VIOTR; conditions: 320 g/ha, Viola tricolor
Procedure, shortened: as §4

[13] = test system: Abutilon theophrasti (ABUTH); test: Post-emergence herbicidal action against ABUTH; conditions: visual rating about 3 weeks after treatment vs untreated controls (100% = plants have died, 0% = like control plants)
Procedure, shortened: as §2

[14] = test system: Echinochloa crus-galli (ECHCG); test: Pre-emergence herbicidal action against ECHCG; conditions: dosage 320 g/ha
Procedure, shortened: as §4

Lolium rigidum (LOLRI) [15] = test: Pre-emergence herbicidal action against LOLRI; conditions: dosage 320 g/ha
Procedure, shortened: as §4

[16] = test system: Matricaria inodora (MATIN); test: Pre-emergence herbicidal action against MATIN
Procedure, shortened: as §4

[17] = test system: Pharbitis purpurea (PHBPU); test: Pre-emergence herbicidal action against PHBPU
Procedure, shortened: as §4

[18] = test system: Polygonum convolvulus (POLCO); test: Pre-emergence herbicidal action against POLCO; conditions: dosage 320 g/ha
Procedure, shortened: as §4

[19] = test system: Alopecurus myosuroides (ALOMY); test: Post-emergence herbicidal action against ALOMY; conditions: visual rating about 3 weeks after treatment vs untreated controls (100% = plants have died, 0% = like control plants)
Procedure, shortened: as §2

Avena fatua (AVEFA) = test: Post-emergence herbicidal action against AVEFA; conditions: visual rating about 3 weeks after treatment
Procedure, shortened: as §2

[20] = test system: Echinochloa crus-galli (ECHCG); test: Post-emergence herbicidal action against ECHCG
Procedure, shortened: as §2

Lolium rigidum (LOLRI) [21] = test: Post-emergence herbicidal action against LOLRI; conditions: dosage 320 g/ha
Procedure, shortened: as §2

[22] = test system: Matricaria inodora (MATIN); test: Post-emergence herbicidal action against MATIN
Procedure, shortened: as §2

[23] = test system: Polygonum convolvulus (POLCO); test: Post-emergence herbicidal action against POLCO; conditions: dosage 320 g/ha
Procedure, shortened: as §2

Setaria viridis (SETVI) [24] = test: Post-emergence herbicidal action against SETVI
Procedure, shortened: as §2

[25] = test system: Verconica persica (VERPE); test: Post-emergence herbicidal action against VERPE; conditions: 320 g/ha, VERPE
Procedure, shortened: as §2

Viola tricolor (VIOTR) [26] = test: Post-emergence herbicidal action against VIOTR
Procedure, shortened: as §2

[27] = 80 g/ha, visual rating about 3 weeks after treatment vs untreated controls (100% = plants have died, 0% = like control plants)
[28] = 20 g/ha, effect vs untreated controls
[29] = 80 g/ha, effect in comparison to untreated controls

COC(=O)[C@H](C)NC(=O)COc1nn(-c2ccnc(Cl)c2)c(-c2ccc(F)nc2)c1Br [III-18]
Pre-emergence action against GLXMA in % (Glycine max (GLXMA); 80 g/ha): 0%
Pre-emergence action against ORYSA in % (Oryza sativa (ORYSA) [1]; 80 g/ha): 0%
Pre-emergence action against ORYSA in % (Oryza sativa (ORYSA) [1]; 320 g/ha): 0%
Pre-emergence action against TRZAS in % ([2]; 80 g/ha): 0%
Pre-emergence action against TRZAS in % ([2]; 320 g/ha): 20%
Pre-emergence action against ZEAMX in % (Zea mays (ZEAMX) [3]; 80 g/ha): 20%
Pre-emergence action against ZEAMX in % (Zea mays (ZEAMX) [3]; 320 g/ha): 20%
Post-emergence action against AMARE in % [4, 27]: 80%
Post-emergence action against ORYSA in % (Oryza sativa (ORYSA) [5]; [28]): 0%
Post-emergence action against ORYSA in % (Oryza sativa (ORYSA) [5]; [29]): 0%
Post-emergence action against TRZAS in % ([6]; 20 g/ha): 0%
Post-emergence action against TRZAS in % ([6]; 80 g/ha): 0%
Post-emergence action against ZEAMX in % (crop plant compatibility) (Zea mays (ZEAMX) [7]): 0%
Post-emergence action against ZEAMX in % (Zea mays (ZEAMX) [7]): 0%

COC(=O)[C@H](C)COC(=O)COc1nn(-c2ccnc(Cl)c2)c(-c2ccc(F)nc2)c1Br [III-17]
Pre-emergence action against AMARE in % ([8]; 320 g/ha): 90%
Pre-emergence action against GLXMA in % (Glycine max (GLXMA); 80 g/ha): 0%
Pre-emergence action against ORYSA in % (Oryza sativa (ORYSA) [1]; 80 g/ha): 0%
Pre-emergence action against ORYSA in % (Oryza sativa (ORYSA) [1]; 320 g/ha): 10%
Pre-emergence action against TRZAS in % ([2]; 80 g/ha): 0%
Pre-emergence action against ZEAMX in % (Zea mays (ZEAMX) [3]; 80 g/ha): 20%
Pre-emergence action against ZEAMX in % (Zea mays (ZEAMX) [3]; 320 g/ha): 20%
Post-emergence action against AMARE in % [4, 27]: 80%
Post-emergence action against PHBPU in % ([9]; dosage 80 g/ha): 80%
Post-emergence action against ORYSA in % (Oryza sativa (ORYSA) [5]; [28]): 0%
Post-emergence action against ORYSA in % (Oryza sativa (ORYSA) [5]; [29]): 0%
Post-emergence action against TRZAS in % ([6]; 20 g/ha): 20%
Post-emergence action against ZEAMX in % (crop plant compatibility) (Zea mays (ZEAMX) [7]): 20%
Post-emergence action against ZEAMX in % (Zea mays (ZEAMX) [7]): 20%

CCOC(=O)COc1nn(-c2ccccn2)c(-c2ccc(F)nc2)c1C1CC1 [Example I-78]
Pre-emergence action against ALOMY [10]: 90%
Pre-emergence action against SETVI in % (Setaria viridis (SETVI) [11]; dosage 320 g/ha): 80%
Pre-emergence action against VIOTR in % (Viola tricolor (VIOTR) [12]): 80%
Pre-emergence action against GLXMA in % (Glycine max (GLXMA); 80 g/ha): 0%
Pre-emergence action against ORYSA in % (Oryza sativa (ORYSA) [1]; 80 g/ha): 0%
Pre-emergence action against ORYSA in % (Oryza sativa (ORYSA) [1]; 320 g/ha): 0%
Pre-emergence action against TRZAS in % ([2]; 80 g/ha): 0%
Pre-emergence action against ZEAMX in % (Zea mays (ZEAMX) [3]; 80 g/ha): 0%
Pre-emergence action against ZEAMX in % (Zea mays (ZEAMX) [3]; 320 g/ha): 0%
Post-emergence action against ABUTH in % ([13]; 80 g/ha): 80%
Post-emergence action against AMARE in % [4, 27]: 80%
Post-emergence action against ORYSA in % (Oryza sativa (ORYSA) [5]; [28]): 0%
Post-emergence action against ORYSA in % (Oryza sativa (ORYSA) [5]; [29]): 20%
Post-emergence action against TRZAS in % ([6]; 20 g/ha): 0%
Post-emergence action against TRZAS in % ([6]; 80 g/ha): 20%

COC(=O)CSc1nn(-c2ccccn2)c(-c2cncc(F)c2)c1Br [Example I-151]
Pre-emergence action against ALOMY [10]: 100%
Pre-emergence action against AMARE in % ([8]; 80 g/ha): 90%
Pre-emergence action against AMARE in % ([8]; 320 g/ha): 100%
Pre-emergence action against ECHCG in % [14]: 90%
Pre-emergence action against LOLRI in % (Lolium rigidum (LOLRI) [15]): 90%
Pre-emergence action against MATIN in % ([16]; dosage 80 g/ha): 90%
Pre-emergence action against MATIN in % ([16]; dosage 320 g/ha): 90%
Pre-emergence action against PHBPU in % ([17]; dosage 80 g/ha): 80%
Pre-emergence action against PHBPU in % ([17]; dosage 320 g/ha): 80%
Pre-emergence action against POLCO in % [18]: 90%
Pre-emergence action against SETVI in % (Setaria viridis (SETVI) [11]; dosage 80 g/ha): 90%
Pre-emergence action against SETVI in % (Setaria viridis (SETVI) [11]; dosage 320 g/ha): 100%
Pre-emergence action against VIOTR in % (Viola tricolor (VIOTR) [12]): 100%
Pre-emergence action against GLXMA in % (Glycine max (GLXMA); 80 g/ha): 10%
Pre-emergence action against GLXMA in % (Glycine max (GLXMA); 320 g/ha): 20%
Pre-emergence action against TRZAS in % ([2]; 80 g/ha): 10%
Post-emergence action against ABUTH in % ([13]; 80 g/ha): 80%
Post-emergence action against ABUTH in % ([13]; 320 g/ha): 80%
Post-emergence action against ALOMY in % ([19]; 80 g/ha): 80%
Post-emergence action against ALOMY in % ([19]; 320 g/ha): 80%
Post-emergence action against AMARE in % [4, 27]: 90%
Post-emergence action against AMARE in % ([4]; 320 g/ha, visual rating about 3 weeks after treatment): 100%
Post-emergence action against AVEFA in % (Avena fatua (AVEFA); 80 g/ha): 90%
Post-emergence action against AVEFA in % (Avena fatua (AVEFA); 320 g/ha): 90%
Post-emergence action against ECHCG in % ([20]; dosage 80 g/ha): 90%
Post-emergence action against ECHCG in % ([20]; dosage 320 g/ha): 90%
Post-emergence action against LOLRI in % (Lolium rigidum (LOLRI) [21]): 90%
Post-emergence action against MATIN in % ([22]; dosage 80 g/ha): 80%
Post-emergence action against MATIN in % ([22]; dosage 320 g/ha): 90%
Post-emergence action against PHBPU in % ([9]; dosage 80 g/ha): 90%
Post-emergence action against PHBPU in % ([9]; dosage 320 g/ha): 90%
Post-emergence action against POLCO in % [23]: 80%
Post-emergence action against SETVI in % (Setaria viridis (SETVI) [24]; dosage 80 g/ha): 90%
Post-emergence action against SETVI in % (Setaria viridis (SETVI) [24]; dosage 320 g/ha): 90%
Post-emergence action against VERPE in % [25]: 90%
Post-emergence action against VIOTR in % (Viola tricolor (VIOTR) [26]; 80 g/ha): 80%
Post-emergence action against VIOTR in % (Viola tricolor (VIOTR) [26]; 320 g/ha): 90%
Post-emergence action against ORYSA in % (Oryza sativa (ORYSA) [5]; [29]): 0%
